Experimental data reported in patent US20230129723A1, “EN[…] OF 3,4-METHYLENEDIOXYMETHAMPHETAMINE AND RELATED METABOLITES AND USES THEREOF” (ATAI Life Sciences AG, priority 2021, published 2023).

Key:
[1] = tested on: rat embryonic cortical neuron cultures; assay: Neurite outgrowth in primary rat embryonic cortical neuron cultures, single test articles (Example 1); type: cell-based; details: 3 days treatment, compared to 0.1% sterile water vehicle control
Description: Primary rat cortical neuron experimental methods: Female Wistar rats of 17 days gestation were killed by cervical dislocation and the fetuses (typically 6 to 8 in number) were removed from the uterus. Fetal brains were placed in ice-cold medium of Leibovitz (L15, Gibco, France). Cortex was dissected and meninges were carefully removed. The cortical neurons were dissociated by trypsinization (trypsin-EDTA, Gibco) in the presence of DNAse I (Roche, France). The reaction was stopped by addition of Dulbecco's Modified Eagle Medium (DMEM; Gibco) with 10% of fetal bovine serum (FBS; Gibco). The suspension was triturated with a 10-ml pipette and a 21-gauge needle syringe and centrifuged. The pellet of dissociated cells was resuspended in a medium consisting of Neurobasal (Gibco) supplemented with 2% B27 supplement (Gibco), 0.5 mM L-Glutamine (Gibco), and an antibiotic-antimycotic mixture. Viable cells were counted in a Neubauer cytometer and cells were seeded in 96-well plates (Costar) precoated with poly-L-lysine at 10,000 cells/well.
Stock solutions were prepared in sterile water at 10 mM, and stored at −20° C. until use. Further dilution will be performed in culture in the medium on the day of the treatment. 0.1% Sterile water will be present in all tested conditions. The following conditions were tested: 1) Racemic MDMA (10000, 1000, 100, 10, 1, 0.1, 0.01, 0.001 nM), 2) S(+)-MDMA (10000, 1000, 100, 10, 1, 0.1, 0.01, 0.001 nM), 3) R(−)-MDMA (10000, 1000, 100, 10, 1, 0.1, 0.01, 0.001 nM), 4) Racemic MDA (10000, 1000, 100, 10, 1, 0.1, 0.01, 0.001 nM), 5) S(+)-MDA (10000, 1000, 100, 10, 1, 0.1, 0.01, 0.001 nM), and 6) R(−)-MDA (10000, 1000, 100, 10, 1, 0.1, 0.01, 0.001 nM).
The experimental protocol was performed in 2 independent cultures (i.e., from 2 different pregnant rats). For each culture, each condition was tested in sextuplet (6 wells per condition per culture for a total of 12 wells per condition). […] After three days of plating and compound treatment (Day3), cultures were fixed with paraformaldehyde in phosphate buffered saline at 4° C. (PBS, 4%, Sigma). Then, all subsequent steps were performed at room temperature.
Cells were successively permeabilized for 30 minutes using 0.1% triton, saturated with PBS containing 3% bovine serum albumin (BSA) and incubated for 1 hour with anti-beta III tubulin antibody (T5168, Sigma). Cells were first washed 3 times and then were incubated for 1 hour with goat anti-mouse secondary antibody coupled with Alexa Fluor 488 (AF488, Invitrogen A11001). Finally, nuclei were stained with 4′-6-diamidino-2-phenylindole (DAPI). After rinsing the cells with PBS, the plate was imaged and neurite networks were examined and analyzed using a High-Content Screening platform (CellInsight CX5, Thermo Scientific) with integrated Photometrics high-resolution fluorescent camera, Olympus objective (10×) and HCS Studio Cell Analysis Software.
Approximately 2,000 neurons per well were analyzed using a validated cortex neuron outgrowth algorithm that utilizes parameters optimized for analysis of embryonic rat cortical neuron cultures. The HCS Studio Cell Analysis Software output will include values for neurite number total count, neurite total length (μm) and total number of branch points for each of the 6 wells per culture. The evaluation of neurite outgrowth was performed using the average number of neurites per neuron, the average total neurite length per neuron (μm) and the average number of branch points per neuron across 12 wells. Data also were transformed to percent (%) of the average vehicle control value. Results were expressed as mean (±s.e.m.) of the transformed (% of vehicle control) data. Statistical analyses were performed on transformed percent of the average vehicle control data for each measure for each test article using one-way analysis of variance (Anova, StatView or GraphPad Prism). Where applicable, Dunnett's test was used for multiple pairwise comparisons to the negative control (vehicle) condition. […]

[2] = tested on: rat embryonic cortical neuron cultures; assay: Neurite outgrowth in primary rat embryonic cortical neuron cultures, racemic and non-racemic R(−)/S(+)-MDMA mixtures (Example 2); type: cell-based; details: concentrations of R(−)- and S(+)-MDMA as in the label (alone: 10 uM), 3 days treatment, compared to vehicle control, Anova/Dunnett p<0.05
Description: Primary rat cortical neuron experimental methods: Female Wistar rats of 17 days gestation are killed by cervical dislocation and the fetuses (typically 6 to 8 in number) are removed from the uterus. Their brains are placed in ice-cold medium of Leibovitz (L15, Gibco, France). Cortex is dissected and meninges are carefully removed. The cortical neurons are dissociated by trypsinization (trypsin-EDTA, Gibco) in presence of DNAse I (Roche, France). The reaction is stopped by addition of Dulbecco's Modified Eagle Medium (DMEM; Gibco) with 10% of fetal bovine serum (FBS; Gibco). The suspension is triturated with a 10-ml pipette and using a needle syringe 21G and centrifuged. The pellet of dissociated cells is resuspended in a medium consisting of Neurobasal (Gibco) supplemented with 2% B27 supplement (Gibco), 0.5 mM L-Glutamine (Gibco), an antibiotic-antimycotic mixture. Viable cells are counted in a Neubauer cytometer and cells are seeded in 96-well plate (Costar) precoated with poly-L-lysine at 10 000cells/well.
The protocol is performed in either 1 or 2 independent cultures (i.e., from 1 or 2 different pregnant rats). For each culture, each condition is performed in sextuplet (6 wells per condition per culture from 1 rat, or a total of 12 wells per condition when 2 rats/cultures are used).
Cells are treated with the test compounds R(−)-MDMA and S(+)-MDMA as described in the following Tables below.
After three days of plating and test compound treatment (Day3), cultures are fixed with paraformaldehyde in phosphate buffered saline at 4° C. (PBS, 4%, Sigma). Then all steps will be performed at room temperature. Cells are successively permeabilized 30 min using 0.1% triton, saturated with PBS containing 3% bovine serum albumin (BSA) and incubated 1 h with anti-beta III tubulin antibody (T5168, Sigma). Cells are first washed 3 times and are then incubated 1 h with goat anti-mouse secondary antibody coupled with Alexa Fluor 488 (AF488, Invitrogen A11001). Finally, nuclei are stained with 4′-6-diamidino-2-phenylindole (DAPI). After rinsing the cells with PBS, the plate is filmed and neurite networks are examined and analyzed using a High-Content Screening platform (CellInsight CX5, Thermo Scientific) with integrated Photometrics high-resolution fluorescent camera, Olympus objective (10×) and HCS Studio Cell Analysis Software.
Approximately 2000 neurons per well were analyzed using a validated Cortex Neuron Outgrowth algorithm established by Neurofit that utilizes parameters optimized for analysis of embryonic rat cortical neuron cultures. The HCS Studio Cell Analysis Software output will include values for neurite total count number, neurite total length (μm) and total number of branch points for each of the 6 wells per culture. The evaluation of neurite outgrowth was performed using the average number of neurites per neuron, the average of total neurite length per neuron (μm) and the average number of branchpoint per neuron across 6 wells of each culture (6 wells total (1 rat used) or 12 wells total (2 rats used). Data were transformed to % of the average vehicle control value.

[3] = at any tested concentration (0.001-10000 nM)

SMILES	neurite number [1, 3]	neurite total length (μm) [1, 3]	total number of branch points [1, 3]	average number of branchpoints per neuron [2]	average number of neurites per neuron [2]	average total neurite length per neuron [2]	neurite number ([1]; at 10 μM, Anova/Dunnett p<0.05)	neurite total length (μm) ([1]; at 10 μM, Anova/Dunnett p<0.05)	total number of branch points ([1]; at 10 μM, Anova/Dunnett p<0.05)	neurite number ([1]; at 0.0001 μM)
CN[C@@H](C)Cc1ccc2c(c1)OCO2 [S(+)-MDMA]	did not significantly alter	did not significantly alter	did not significantly alter	did not significantly induce	did not significantly induce	did not significantly induce				
CNC(C)Cc1ccc2c(c1)OCO2 (racemic) [Racemic R,S(+/−)-MDMA, 3,4-Methylenedioxymethamphetamine]							significantly increased	significantly increased	significantly increased	
CC(N)Cc1ccc2c(c1)OCO2 (racemic) [racemic R,S(+/−)-MDA, 3,4-methylenedioxyamphetamine, reference compound]	did not significantly alter	did not significantly alter	did not significantly alter							
CN[C@H](C)Cc1ccc2c(c1)OCO2 [R(−)-MDMA, (R)-3,4-methylenedioxymethamphetamine]				did not have significant effects	did not have significant effects	significantly induced	significantly increased	significantly increased	significantly increased	significantly increased
C[C@@H](N)Cc1ccc2c(c1)OCO2 [R(−)-MDA]	did not significantly alter	did not significantly alter	did not significantly alter							
C[C@H](N)Cc1ccc2c(c1)OCO2 [S(+)-MDA]	did not significantly alter	did not significantly alter	did not significantly alter							
